Experimental data: patent publication US9115153B2, “Aza metal complexes” (Canon Kabushiki Kaisha, priority 2007, dated 2015)

Key:
[1] = XAFS measurement and analysis (coordination number); assay type: physicochemical; conditions: for comparison
Description: The XAFS analysis of the complex (R)-11 was performed at Spring-8.
Specifically, the number of the coordinated water molecules was estimated by removing background from XAFS spectra and performing fitting using Fourier transformation or Fourier inverse transformation.
Further, the XAFS spectra were obtained by a transmission method using an ion chamber for a pellet (in a powder state) of the complex ((R)-11) and a fluorescence method using a multi-element semiconductor detector for an aqueous solution of the complex ((R)-11), respectively.
When fitting was performed without fixing the proximal coordination number to 9, the following results were obtained. In a powder state, the coordination number of O was 6.99 and the distance between atoms of Gd and O was 2.421 Å, and in an aqueous solution (3 mM) the coordination number of O was 9.77 and the distance between atoms of Gd and O was 2.430 Å.

[2] = T1 relaxation time measurement by 500 MHz NMR (aqueous solution); assay type: physicochemical; conditions: 0.13 mM aqueous solution, 10% heavy water, 27° C., inversion recovery
Description: The T1 relaxation time measurement was performed using a broadband probe on a 500 MHz NMR apparatus (Avance 500 manufactured by Bruker Biospin K.K.). The T1 relaxation times were measured at 27° C. using an inversion recovery method.
First, a Gd triamine 2nd G-12-ol-dendrimer complex (R)-11 was dissolved in 1 ml of ultrapure water to prepare an aqueous solution in which the concentration of complex (R)-11 was 24.05 mM. In addition, the concentration of complex (R)-11 was determined from the Gd concentration by inductive coupled plasma emission spectrometry (ICP emission spectrometry). Next, the aqueous solution was diluted with ultrapure water and heavy water so that the concentration of complex (R)-11 was 0.13 mM and the concentration of heavy water was 10%, and the resulting aqueous solution was used as an NMR measurement sample. […] The data shown in FIG. 1 clarified that the T1 time of water of the complex (R)-11 aqueous solution was 429 ms.
The T1 relaxation time was measured in the same manner as in Example 4. […] The T1 relaxation time of water for the Gd (DTPA) aqueous solution sample determined from the data shown in FIG. 2 was 1333 ms, which is considerably longer than the T1 relaxation time of complex (R)-11.

[3] = aqueous solutions of 2.0, 1.0, 0.5 and 0.25 mM, saturation recovery spin echo, 24° C.
[4] = T1 relaxation time measurement by 500 MHz NMR in FBS solution; assay type: physicochemical; conditions: FBS 80%, heavy water 10%, H2O 10%; otherwise as Example 4 / Comparative Example 1 (500 MHz NMR)
Description: The T1 time was measured in the same manner as in Example 4 except that the NMR measurement sample was changed to an FBS (fetal bovine serum) solution of the complex (R)-11 (FBS concentration: 80%, heavy water concentration: 10%, H2O concentration: 10%).
The T1 time was measured in the same manner as in Comparative Example 1 except that the NMR measurement sample was changed to an FBS (fetal bovine serum) solution of GdCl3 or Gd (DTPA) (FBS concentration: 80%, heavy water concentration: 10%, H2O concentration: 10%).

[5] = T1 relaxation time measurement by 7T MRI (inversion recovery FISP); assay type: physicochemical; conditions: 1.3 mM in ultrapure water, 24° C.
Description: The T1 relaxation time measurement by MRI was performed using a 7T MRI apparatus (BioSpec 70/20 manufactured Bruker Biospin K.K.). The T1 relaxation time was measured under the measurement conditions of TR/TE 3/1.5 ms, FOV=8*4 cm, matrix=128*128, NA=2 and a temperature of 24° C. using an inversion recovery FISP method. Aqueous solutions of six different concentrations (1.3 mM, 0.65 mM, 0.325 mM, 0.13 mM, 0.026 mM and 0.013 mM) were prepared by dissolving complex (R)-11 in ultrapure water, and each of the aqueous solutions was placed into an Eppendorf tube and used directly as a measurement sample.
The T1 relaxation time was measured in the same manner as in Example 5. A GdCl3 aqueous solution was prepared by dissolving commercially available GdCl3.6H2O in ultrapure water so that the concentration was adjusted to 1.3 mM, and Gd (DTPA) aqueous solutions were prepared by diluting a commercially available Gd (DTPA) aqueous solution (630 mM) with ultrapure water so that the concentration was adjusted to 2.0, 1.3, 1.0, 0.5 and 0.25 mM, respectively. Each of the aqueous solutions was placed into an Eppendorf tube and used directly as a measurement sample.

SMILES	coordination number of water molecule [1]	T1 relaxation time of water [2]	T1 relaxation ability r1 [3]	T1 time of water for FBS solution [4]	T1 [5]
O=C([O-])CN1CCN(CC(=O)[O-])CCN(CC(=O)O)CCN(CC(=O)[O-])CC1.[Gd+3] [Gd (DOTA), reference compound]	1	–	–	–	–
O=C([O-])CN(CCN(CC(=O)[O-])CC(=O)O)CCN(CC(=O)[O-])CC(=O)O.[Gd+3] [Gd (DTPA)]	1	1333 ms	4.661 L/mmol/s	1429 ms	205.653 ms
[Cl][Gd]([Cl])[Cl] [GdCl3]	–	712 ms	–	1708 ms	58.991 ms
